According to patent US20240252657A1, “HEMTAC SMALL-MOLECULE DEGRADATION AGENT AND APPLICATION THEREOF” (SHANDONG UNIVERSITY, priority 2022, published 2024):

Columns and labels:
CDK4/6 = experiment: Western blot, CDK4/6 protein level in B16F10 cells; format: cell-based, mouse
Experimental: (§1) After B16F10 cells were treated with the compound at different concentrations and for different periods of time, the levels of CDK4 and CDK6 proteins in the cells were measured by Western blot. Firstly, intracellular proteins were extracted and quantified. The cells were lysed with RIPA cell lysate (with a protease inhibitor), and proteins were collected, which were quantified by a BCA protein quantitative determination kit and quantified to the same concentration. Protein denaturation: The proteins were placed in a water bath at 100° C. for 8 minutes to denature the proteins. Loading and gel electrophoresis: The loading amount per cell was generally 20 μL. […] Membrane transfer: The membrane transfer was carried out using a wet transfer instrument, at a constant current of 250 mA for 90 minutes. The PVDF membrane should be soaked with methanol beforehand. Blocking: The PVDF membrane was placed in BSA blocking buffer for 1 h (with slow shaking in a shaker). Incubation with primary antibody: The primary antibody was diluted according to the instructions. The primary antibody was added, followed by incubation overnight at 4° C. Membrane washing: The membrane was washed with TBST washing buffer for 3 times, each time for 10 minutes. Incubation with secondary antibody: The second antibody was added, followed by incubation in a shaker at room temperature for 1 h. […]

CDK6 = target: T1, CDK6 (Mus musculus, UniProt Q64261); experiment: Western blot, CDK6 degradation in B16F10 cells; format: cell-based; conditions: read-out: DC50 (drug concentration leading to 50% protein degradation) of CDK6
T1 construct: degradation of CDK4 and CDK6 in B16F10 cells; endogenous in cells; host or cells: B16F10
T1 sequence (Q64261 whole entry): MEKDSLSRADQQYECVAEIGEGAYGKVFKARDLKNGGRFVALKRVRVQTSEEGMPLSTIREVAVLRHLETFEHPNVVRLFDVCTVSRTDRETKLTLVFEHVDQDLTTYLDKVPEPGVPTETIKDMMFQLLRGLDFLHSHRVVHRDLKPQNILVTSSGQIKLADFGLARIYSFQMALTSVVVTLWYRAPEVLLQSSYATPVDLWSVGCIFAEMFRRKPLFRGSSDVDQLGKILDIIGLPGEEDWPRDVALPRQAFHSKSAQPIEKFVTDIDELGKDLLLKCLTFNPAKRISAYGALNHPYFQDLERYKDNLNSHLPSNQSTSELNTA
Experimental: as §1

CDK4 = target: T2, CDK4 (Mus musculus, UniProt P30285); experiment: Western blot, CDK4 degradation in B16F10 cells; format: cell-based; conditions: read-out: DC50 (drug concentration leading to 50% protein degradation) of CDK4
T2 construct: degradation of CDK4 and CDK6 in B16F10 cells; endogenous in cells; host or cells: B16F10
T2 sequence (P30285 1-303): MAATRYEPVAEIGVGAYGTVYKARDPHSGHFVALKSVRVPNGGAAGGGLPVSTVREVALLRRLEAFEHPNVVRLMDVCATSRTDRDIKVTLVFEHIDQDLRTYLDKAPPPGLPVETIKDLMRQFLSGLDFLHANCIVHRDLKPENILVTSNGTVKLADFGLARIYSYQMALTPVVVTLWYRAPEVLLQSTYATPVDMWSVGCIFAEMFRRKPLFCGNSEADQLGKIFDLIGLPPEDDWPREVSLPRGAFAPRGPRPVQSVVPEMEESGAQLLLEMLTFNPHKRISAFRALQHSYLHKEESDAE
Experimental: as §1

mouse B16F10 melanoma = experiment: Anti-tumor experiment in mice in vivo, B16F10 melanoma xenograft model
Experimental: B16F10 cells (10^6 cells/mouse) were injected subcutaneously into the forelimb of C57BL/6 mice to establish an xenograft model of mouse B16F10 melanoma. When the tumor volume reached 100-200 mm^3, the mice were randomly divided into four groups (n=6). The compound was injected intraperitoneally every day for two weeks, and the body weights and tumor volumes of the mice were measured every two days. The tumor length and width were measured along two orthogonal axes with a vernier caliper, and the tumor volume in the mouse was calculated based on an equation V (mm^3)=(length×width^2)/2.

## COc1c(C)cnc(Cn2cc(C#CCCn3cc(CNC(=O)CN4CCN(c5ccc(Nc6ncc7c(C)c(C(C)=O)c(=O)n(C8CCCC8)c7n6)nc5)CC4)nn3)c3c(Cl)nc(N)nc32)c1C [Compound 26]
CDK4/6; B16F10 cells, 0.5 μM
  time within which degradation of CDK4/6 was induced: ≤ 12 h
CDK4/6; B16F10 melanoma cells, 24 h
  degradation activity (rank among the HEMTACs): highest degradation activity
CDK6
  DC50: ~0.019 µM
CDK4
  DC50: ~0.026 µM
Mouse B16F10 melanoma; 20 mg/kg, intraperitoneally every day for two weeks
  anti-tumor effect compared with BIIB021 (20 mg/kg): better than that of HSP90 inhibitor BIIB021
Mouse B16F10 melanoma; 40 mg/kg, intraperitoneally every day for two weeks
  growth of melanoma: significantly inhibit the growth of melanoma
Mouse B16F10 melanoma; all treatment groups
  other signs of toxicity: no other signs of toxicity
Mouse B16F10 melanoma; intraperitoneally every day for two weeks
  body weight of mice: slight weight loss
Mouse B16F10 melanoma; mouse B16F10 melanoma model, FIG. 4 legend, no dose given
  anti-melanoma effect in vivo: significant anti-melanoma effect
